This is an account of results in PMC12575728, “Galactose-modified small molecule modulator targets RORα to enhance circadian rhythm and alleviate periodontitis-associated alveolar bone loss” (Bone Research, 2025).

Data set [1] is described as follows: Toxicity and safety evaluation in vivo (blood biochemistry, histopathology). The settings on record: mice, 10 mg/Kg. Here is the method: (§1) 379 Figure S34. Exploration of the inhibitory effect of compound 9 on the targeting function of RORs. a.
(§2) 380 Synthetic route of compound 9. b. Cytotoxicity assessment of compound 9 by CCK-8 assay. c.qPCR
(§3) 381 analysis of downstream target genes (FGF21 and G6Pase) in compound 9-treated HepG2 cells(n=6).
(§4) 382 d. Cotransfection of HEK293T cells with RORα or RORγ and reporters containing the FGF21 or
(§5) 384 5μM each of Gala-SR and SR1078. (* represents the comparison with DMSO*P<0.05, n=4).
(§6) 386 Figure S35. Impact of Gala-SR on circadian clock gene expression in periodontal ligament stem cells.
(§7) 387 qPCR analysis of core clock genes at multiple time points in synchronized hPDLSCs treated with 5
(§8) 391 Figure S36.Toxicity and safety evaluation in vivo.a. After intraperitoneal injection of Gala-SR and
(§9) 392 SR1078 for 2 weeks, mouse serum was collected to measure […] (ALT, AST, CREA,
393 and BUN. ns, not significant) to assess the drugs' impact on liver function. b. HE staining was
394 performed on liver, kidney, and heart tissues from mice after 2 weeks of intraperitoneal injection with […]

Another data set has as its system jet lag mice. Nature of the data set: Clock gene mRNA in liver of jet lag mice. Type of data set: in vivo. As to conditions: mice with disordered circadian rhythms. Here is the method: (§10) RNA from liver, periodontal tissues and cell samples was prepared as previously described. Total RNA (1 ug) was synthesized into cDNA using […] (Vazyme). mRNA expression levels were normalized to GAPDH. Relative expression levels and enrichment contents were calculated using the comparative Ct Method. Primer information is detailed in Data file S1.
Male C57BL/6 mice,[40] 2 months old, were housed under disrupted conditions for 4 weeks. From the third week, they were intraperitoneally injected with Gala-SR, SR1078, or DMSO for 3 weeks. In the fifth week, general anesthesia was administered via intraperitoneal injection of pentobarbital sodium (40 mg/kg), and a ligature was placed around the cervix of the maxillary second molar to establish the murine periodontitis model. Collect gingival tissue and liver tissue every 6 h continuously for a duration of 48 h.

A further data set relates to human U2OS cells. In words: CCK-8 assay and live-dead staining. Type of data set: cell-based. The settings on record: 1-100 μmol/L, 24, 48, 72 h, pronounced above 10 μmol/L. As for the experimental part: U2OS cells were seeded at a density of 10 000 cells per well in a 96-well plate, with 100 μL of culture medium added to each well. The cells were incubated at 37 °C in a 5% CO2 atmosphere for 24 h or until they reached the logarithmic growth phase. Following this, the cells were treated with SR1078, Gala-SR, Malt-SR, and Mann-SR and incubated for 24, 48, and 72 h. 10 μL of CCK-8 reagent was added to each well, and the plate was returned to the incubator for an additional 1–4 h. Absorbance at 450 nm was then measured using a microplate reader. The average absorbance for each well was calculated, and relative cell viability was determined by comparing the absorbance values to those of the control group.
332 Figure S25. After U2OS cells were treated with various concentrations (0 ~ 50 μM) of SR1078,
333 Gala-SR, Malt-SR, and Mann-SR for 24 hours, live and dead cells were labeled using the
334 Calcein-AM/PI double-staining method. Scale bar: 50 μm.
Body weight changes (%) in
338 C57BL/6J mice (n = 4) after 7 days of administration of Gala-SR, SR1078, or DMSO at doses of 10
339 mg/kg and 50 mg/kg via IP were measured. […]
Background: Tetrazolium assays rely on reduction of a dye to a coloured formazan, in cell work by metabolically active cells.

The next data set concerns β-galactosidase. Nature of the data set: Hydrolysis of Gala-SR by β-galactosidase (MS). Type of data set: in vitro ADME. As to conditions: mass spectrometry.
Data set [2] has as its system human periodontal ligament stem cells. In words: qPCR of circadian clock genes in synchronized human periodontal ligament stem cells. Type of data set: cell-based. The settings on record: synchronized hPDLSCs, 5 µM, compared to DMSO and SR1078. As for the experimental part: as §10, §1, §2, §3, §4, §5, §6, §7, §8, §9
393 and BUN. ns, not significant) to assess the drugs' impact on liver function. b. HE staining was […]

The next data set deals with RORα. In words: G6Pase and Fgf21 mRNA in mouse liver after IP injection. The settings on record: 10 mg/kg IP, liver collected 24 h after injection. Type of data set: in vivo, mice. As for the experimental part: as §10
The next data set has as its system RORα/γ. Nature of the data set: PCR of RORα/γ downstream target genes G6Pase and FGF21 in HepG2 cells. Type of data set: cell-based. As for the experimental part: Cells were seeded into 6-well plates, treated with the drug for 24 h, and total RNA samples were extracted using TRIzol reagent (Vazyme, China). The extraction of total RNA was performed according to the following steps: After removal of the supernatant, the cells were thoroughly washed three times with phosphate-buffered saline (PBS). Subsequently, the cells were lysed by the application of 1 mL TRIzol reagent. The resulting samples were harvested into frozen 2 mL Eppendorf microcentrifuge tubes and incubated at room temperature for 5 min. A volume of 0.2 mL of chloroform was added to the microcentrifuge tubes to ensure homogenization of the samples, which were then vortexed and incubated at room temperature for another 10 min. The samples were then centrifuged at a speed of 12 000 × g in a microcentrifuge at 4 °C for 15 min. The upper aqueous phase was subsequently collected and transferred to a new 2 mL microcentrifuge tube and mixed with an equal volume of isopropanol. The mixture was then centrifuged at a speed of 12 000 × g in a table microcentrifuge at 4 °C for 10 min. The resulting precipitates were washed once with 1 mL of 75% ethanol and once with 100% ethanol, followed by centrifugation at a speed of 7 500 × g in a table microcentrifuge for 5 min. Finally, the pellet was dissolved in RNase-free DEPC-treated water.
as §10

On the set-up of data set [3]: method as in PMID 20735016. The settings on record: cited from earlier work.

With `O=C(Nc1ccc(C(OCO[C@@H]2O[C@H](CO)[C@H](O)[C@H](O)[C@H]2O)(C(F)(F)F)C(F)(F)F)cc1)c1ccc(C(F)(F)F)cc1` [Gala-SR], in data set [1], the “histopathological examination of liver, kidney, and heart” value was “no discernible changes”. For the same compound, in the data set with jet lag mice, the “circadian rhythm of clock gene expression in liver tissue” value is reported as “effectively restored”. Further, the “cytotoxicity / cell compatibility” value in the data set on human U2OS cells was “superior among all the evaluated groups”. The “hydrolysis upon addition of galactosidase (release of SR1078)” value in the data set with β-galactosidase is listed as “hydrolysis of galactose on, Gala-SR occurred”. In data set [2], the “rhythmic expression amplitude of BMAL1, PER1, and PER2” value is “more effectively enhanced”. In addition, the “G6Pase and FGF21 expression in mice liver compared to SR1078” value in the data set with RORα is on record as “significantly upregulated”. In the data set with RORα/γ (HepG2, 5 μmol/L Gala-SR + β-galactosidase inhibitor, vs pure Gala-SR), the “G6Pase and FGF21 expression, with galactosidase inhibitor” value is “downregulated”. For the same compound, the “G6Pase and FGF21 expression, with galactosidase” value in the data set on RORα/γ (HepG2, 5 μmol/L Gala-SR + β-galactosidase, vs pure Gala-SR) is on record as “significantly upregulated”. In addition, in the data set on RORα/γ (HepG2 cells, 5 μmol/L, 24 h, compared to SR1078), the “G6Pase and FGF21 mRNA expression” value was “significant upregulation”.
On to `O=C(Nc1ccc(C(O)(C(F)(F)F)C(F)(F)F)cc1)c1ccc(C(F)(F)F)cc1` [SR1078, reference compound], for which, in data set [3] (in vitro), the “safe dose for in vitro experiments” value is 5 µmol/L. Also, the “safe dose for animal studies” value in data set [3] (mice) is on record as 10 mg/kg.
